From patent US4863902A, “Treatment of cancer” (Wakunaga Seiyaku Kabushiki Kaisha, priority 1985, dated 1989)

Assays:
[1] = system: Colon adenocarcinoma 26 (mouse colon adenocarcinoma); test: Tumor weight of transplanted Colon adenocarcinoma 26 in BALB/c mice; assay type: in vivo; details: for antitumor effect potentiating action, same experiment as Experimental Example 13: in combination with cyclophosphamide in place of 5-FU
Method: After BALB/c mice were preliminarily fed in a thermostat (23°±0.5° C.), humidistat (60±5%) room for 1 week, those which appear to be healthy weighing 18-20 g were provided for the present experiment in 6-12 mice per 1 group.
(§1) Colon adenocarcinoma 26 (mouse colon adenocarcinoma) was minced into pieces and about 0.1 to 0.2 ml thereof was transplanted subcutaneously on the right side of mouse abdomen by a cell transplanting needle (trocker). Six days after transplantation, the size of tumor, namely longer diameter (a mm) and shorter diameter (b mm) of tumor were measured and the tumor weight was calculated according to the formula shown below [Instruction 14 (NCI) 1980].
(§2) Tumor weight (mg)=ab^2 /2
(§3) Before carrying out experiments, tumor weights were measured immediately before administration of the compounds and the mice were grouped into 3 groups by use of random numbers so that there may be no difference in average value of the tumor weights on initiation of experiments between the respective groups to make even the average values of tumor weights of the respective groups, and thereafter the compounds were administered to the respective groups.
In this FIGURE, the axis of abscissa indicates the experimental days with the day of compound administration being the day 1, and the axis of ordinate indicates tumor cell growth ratio which is the ratio of the tumor weight after elapse of the respective days relative to the tumor weight on the day 1 as being 100%.

[2] = system: Colon adenocarcinoma 38 (mouse colon adenocarcinoma); test: Tumor weight of transplanted Colon adenocarcinoma 38 in C57BL/6 mice; assay type: in vivo; details: for antitumor effect of (a) + (b) (quantity not headed; method of Experimental Example 4): Table 21
Method: as §1, with “38” for “26”, “Eleven” for “Six”
as §2
In the Table, days indicate the experimental days with the day of compound administration being as the day 1, and the tumor weight immediately before administration of compound of day 1 is made 100. The respective values show the average value ± standard error of case numbers of 10 to 20, in the Table, the marks of (*), * and *** indicate the statistical significance difference of the combined administration group relative to the 5-FU single administration group (the definition of P is as defined above).

[3] = system: mouse ovarian tumor M5076; test: Tumor weight of solid tumor of mouse ovarian tumor in BDF1 mice; assay type: in vivo; details: used together with mytomycin C in place of cisplatin
Method: BDF1 male mice were employed. The feeding conditions were the same as in Experimental Example 1.
Mouse ovarian tumor M5076 was transplanted subcutaneously at the axialla of mouse in 1-2×10^6 cells per mouse. 12 days after transplantation, the size of tumor was measured according to the same method as in Experimental Example 1 (Colon 26) and the tumor weight was calculated.
The grouping operation on initiation of Experiments was conducted in the same manner as in Experimental Example 1. The compounds were administered in the same manner as in Experimental Example 9.
The experiment was carried out in the samme manner as in Experimental Examples 1, 7 and as in Experimental Example 17 for others.

receptor = receptor (Homo sapiens, UniProt P00533); details: J. Biol. Chem., 247, 7659 (1972); cited from earlier work
[4] = system: MX-1 (human breast cancer); test: Tumor weight of transplanted human breast cancer in nude mice; assay type: in vivo, mouse (human tumor xenograft); details: Table 4, adriamycin 10 mg/Kg, hEGF 100 μg/Kg on days 1, 8, 10 and 13, average ± standard error of 8 mice
Method: After BALB/c AJcl-nu strain male nude mice were preliminarily fed for one week in an aseptic clean rack maintained at a constant temperature, (23±0.5°
C.) and a constant humidity (60±5%), those which appeared to be healthy weighing around 20 g were provided for the present experiment in 8 mice per group. The mice employed in the present experiments hereinafter were fed under the above environment.
MX-1 (human breast cancer) was cut into sizes of about 1 mm square and transplanted subcutaneously on the right side of mouse axilla by a cell transplanting needle (trocker). 17 days after transplantation, the size of tumor, namely the longer diameter (a mm) and shorter diameter (b mm) were measured and the tumor weight was calculated by the following formula similarly as for Colon 26.
as §2
as §3, with “the compounds (the day 17 after tumor transplantation) and the” for “the compounds and the”
Administration of the compounds was conducted 4 times as the total on the day 1, the day 8, the day 10 and the day 13. The test solutions were as shown below.

[5] = (a) Adriamycin, Mixed injection
[6] = (a) Adriamycin, Separate injection
[7] = (a) Cisplatin, Separate injection

Row | Compound | antitumor effect potentiating action, same experiment as Experimental Example 13 [1] | antitumor effect of (a) + (b) (quantity not headed; method of Experimental Example 4) [2, 5] | antitumor effect of (a) + (b) (quantity not headed; method of Experimental Example 4) [2, 6] | antitumor effect of (a) + (b) (quantity not headed; method of Experimental Example 4) ([2]; (a) Cisplatin, Mixed injection) | antitumor effect of (a) + (b) (quantity not headed; method of Experimental Example 4) [2, 7] | antitumor effect potentiation, same experiment as Experimental Example 17 [3] | antitumor action potentiating effect, same experiment as Experimental Example 8 ([1]; used in place of hEGF in combination with 5 mg/Kg cisplatin) | antitumor effect of (a) + (b) (quantity not headed; method of Experimental Example 4) ([2]; (a) Tegafur, Mixed injection) | antitumor effect of (a) + (b) (quantity not headed; method of Experimental Example 4) ([2]; (a) Tegafur, Separate injection) | tumor cell growth inhibition, same experiment as Experimental Example 4 ([2]; used in place of hEGF in combination with 5-FU) | tumor cell growth inhibition, same experiment as Experimental Example 14 ([2]; used in place of hEGF in combination with Tegafur) | binding ability of receptor or biological activity (receptor) | Tumor weight (day 1 = 100) ([4]; day 4) | Tumor weight (day 1 = 100) ([4]; day 7) | Tumor weight (day 1 = 100) ([4]; day 11) | Tumor weight (day 1 = 100) ([4]; day 14)
1 | hEGF: human epidermal growth factor/urogastrone, 53 amino acid residues, three disulfide bonds | the same results | 103.1 | 98.5 | 88.8 | 80.3 | the same results |  |  |  |  |  |  |  |  |  | 
2 | hEGF-II: fragment lacking two amino acid residues on the C-terminal side of hEGF (NSDSECPLSHDGYCLHDGVCMYIEALDKYACNCVVGYIGERCQYRDLKWWE; not fully specified; Epidermal growth factor; UniProt P01133 971-1021, looked up, fragment) | the same results | 105.6 | 103.3 | 102.3 | 96.6 | the same results | the same results | 47.8 | 42.8 | the same results | the same results | the same as hEGF |  |  |  | 
3 | COc1cccc2c1C(=O)c1c(O)c3c(c(O)c1C2=O)C[C@@](O)(C(=O)CO)C[C@@H]3O[C@H]1C[C@H](N)[C@H](O)[C@H](C)O1 [Adriamycin, adriamycin] |  |  |  |  |  |  |  |  |  |  |  |  | 162.0 ± 5.4 | 221.8 ± 20.1 | 291.8 ± 21.3 | 256.9 ± 12.7
